According to patent publication USRE48461E1, “Modulation of androgen receptor expression” (Ionis Pharmaceuticals, Inc., priority 2012, dated 2021):
Oligonucleotides are written 5' to 3', each unit as a sugar letter and its base; * is a phosphorothioate linkage, no mark a phosphodiester; rarer units and linkages stand in square brackets, end groups in braces. Plain capitals give the bases only. k = constrained ethyl (cEt); [5mC] = 5-methylcytosine; d = 2'-deoxy (DNA)

Key:
AR mRNA [1] = assay: Dose-dependent antisense inhibition of human AR in HuVEC cells (electroporation, qRT-PCR RTS3559, IC50); format: cell-based; conditions: HuVEC, electroporation, approximately 16 hours
Method in brief: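 HuVEC cells dosed with antisense oligonucleotides by electroporation and treated approximately 16 hours. AR mRNA quantified by real-time qPCR with primer probe set RTS3559 and normalised to total RNA by RIBOGREEN; IC50 from dose-response.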

AR mRNA [2] = assay: Antisense inhibition of human AR in HuVEC cells, single concentration (electroporation, qRT-PCR RTS3559); format: cell-based; conditions: electroporation, approximately 24 hours, relative to untreated control
Method in brief: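 HuVEC cells electroporated with antisense oligonucleotides at a single concentration. AR mRNA quantified by qRT-PCR using human primer-probe set RTS3559 and normalised to total RNA content by RIBOGREEN.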

[3] = Table 19, 500 nM oligonucleotide
[4] = Table 20, 500 nM oligonucleotide

Row | Substance | percent inhibition of AR, 46.9 nM (AR mRNA [1]; Table 31) | percent inhibition of AR, 187.5 nM (AR mRNA [1]; Table 31) | percent inhibition of AR, 750.0 nM (AR mRNA [1]; Table 31) | percent inhibition of AR, 3000.0 nM (AR mRNA [1]; Table 31) | IC50 (AR mRNA [1]; Table 31) | % inhibition (AR mRNA [2]; [3]) | percent inhibition of AR, 46.9 nM (AR mRNA [1]; Table 32) | percent inhibition of AR, 187.5 nM (AR mRNA [1]; Table 32) | percent inhibition of AR, 750.0 nM (AR mRNA [1]; Table 32) | percent inhibition of AR, 3000.0 nM (AR mRNA [1]; Table 32) | IC50 (AR mRNA [1]; Table 32) | percent inhibition of AR, 46.9 nM (AR mRNA [1]; Table 33) | percent inhibition of AR, 187.5 nM (AR mRNA [1]; Table 33) | percent inhibition of AR, 750.0 nM (AR mRNA [1]; Table 33) | percent inhibition of AR, 3000.0 nM (AR mRNA [1]; Table 33) | IC50 (AR mRNA [1]; Table 33) | % inhibition (AR mRNA [2]; [4])
1 | 583795 (antisense kT*kG*k[5mC]*dT*dG*dT*dT*dG*d[5mC]*dT*dG*dA*dA*kG*kG*kA) [compound 583795] | 37% | 61% | 83% | 90% | 90 nM | 63% | – | – | – | – | – | – | – | – | – | – | –
2 | 583797 (antisense kT*k[5mC]*kG*dG*dA*dT*dA*d[5mC]*dT*dG*d[5mC]*dT*dT*k[5mC]*k[5mC]*kT) [compound 583797] | – | – | – | – | – | 35% | 21% | 50% | 74% | 82% | 220 nM | – | – | – | – | – | –
3 | 583799 (antisense kT*kG*k[5mC]*d[5mC]*dT*dT*d[5mC]*dG*dG*dA*dT*dA*d[5mC]*kT*kG*k[5mC]) [compound 583799] | 29% | 60% | 76% | 85% | 140 nM | 65% | – | – | – | – | – | – | – | – | – | – | –
4 | 583802 (antisense k[5mC]*kT*k[5mC]*dG*d[5mC]*dT*d[5mC]*dT*d[5mC]*d[5mC]*d[5mC]*dG*d[5mC]*kT*kG*k[5mC]) [compound 583802] | – | – | – | – | – | 37% | 17% | 25% | 47% | 60% | 1070 nM | – | – | – | – | – | –
5 | 583809 (antisense kT*kG*kT*d[5mC]*d[5mC]*dT*dT*dG*dG*dA*dG*dG*dA*kA*kG*kT) [compound 583809] | 13% | 37% | 68% | 81% | 360 nM | 45% | – | – | – | – | – | – | – | – | – | – | –
6 | 583818 (antisense kT*kG*kG*dT*d[5mC]*dG*dA*dA*dG*dT*dG*d[5mC]*d[5mC]*k[5mC]*k[5mC]*k[5mC]) [compound 583818] | 9% | 46% | 71% | 84% | 310 nM | 42% | – | – | – | – | – | – | – | – | – | – | –
7 | 583821 (k[5mC]*kA*kG*dA*dA*dA*dT*dG*dG*dT*d[5mC]*dG*dA*kA*kG*kT) [compound 583821] | 11% | 35% | 61% | 77% | 460 nM | 42% | – | – | – | – | – | – | – | – | – | – | –
8 | 583833 (kT*kG*kT*dT*d[5mC]*d[5mC]*d[5mC]*d[5mC]*dT*dG*dG*dA*d[5mC]*kT*k[5mC]*kA; antisense) [compound 583833] | – | – | – | – | – | – | – | – | – | – | – | 26% | 43% | 70% | 74% | 260 nM | 37%
9 | 583834 (kA*kG*k[5mC]*dT*dG*dT*dT*d[5mC]*d[5mC]*d[5mC]*d[5mC]*dT*dG*kG*kA*k[5mC]; antisense) [compound 583834] | – | – | – | – | – | – | 34% | 54% | 73% | 84% | 130 nM | – | – | – | – | – | 52%
10 | 583835 (kG*kA*kA*dG*d[5mC]*dT*dG*dT*dT*d[5mC]*d[5mC]*d[5mC]*d[5mC]*kT*kG*kG; antisense) [compound 583835] | – | – | – | – | – | – | 20% | 55% | 74% | 88% | 190 nM | – | – | – | – | – | 44%
11 | 583836 (k[5mC]*k[5mC]*kG*dA*dA*dG*d[5mC]*dT*dG*dT*dT*d[5mC]*d[5mC]*k[5mC]*k[5mC]*kT; antisense) [compound 583836] | – | – | – | – | – | – | 11% | 27% | 67% | 86% | 390 nM | – | – | – | – | – | 37%
12 | 583843 (kG*kT*kA*d[5mC]*dA*dT*dG*d[5mC]*dA*dA*dT*d[5mC]*d[5mC]*k[5mC]*k[5mC]*k[5mC]; antisense) [compound 583843] | – | – | – | – | – | – | – | – | – | – | – | 22% | 40% | 67% | 85% | 300 nM | 35%
